Data on 62 sequences can be found in the supplement of paper PMC11208160.

Data set [1] can be described thus: recombinant barcode read abundance after kanamycin selection (control-corrected) (log10(CPM+1)); higher = more efficient recombination; sequences stand for … in AGTGCAGAGAAAATCGGCCAGTTTTCTCTGCCTGCAGTCCGCATGCCGT…AGATTTATGCAGCGGACTGCCTTTCTCCCAAAGTGATAAACCGGACAGTATCATGGACCGGTTTTCCCGGTAATCCGTATTTGCAAGGTTGGTTTCACT; site = the 11-nt target. Here is the method: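 Pooled E. coli target-specificity screen for the IS621 bridge recombinase. Each library plasmid pairs an 11-nt target (CT core) with a bridge RNA whose target-binding loop (9-nt LTG + 4-nt RTG) is reprogrammed; the rest of the 177-nt WT IS621 bridge RNA scaffold is fixed. The plasmid is co-electroporated with a WT donor plasmid; recombinase is induced with 0.1 mM IPTG and recombinants are selected on kanamycin. Recombinant barcodes are sequenced, converted to CPM, averaged over two biological replicates and corrected by the unselected control CPM. Molecule = full bridge RNA written as DNA: LTG = specificity nt 1-9, RTG = reverse complement of specificity nt 8-11, in the WT scaffold.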

Data set [2] in a line: recombinant UMI read abundance after kanamycin selection (control-corrected) (log10(CPM+1)); higher = more efficient recombination; extreme values may be limits of the assay; sequences stand for … in AGTGCAGAGAAAATCGGCCAGTTTTCTCTGCCTGCAGTCCGCATGCCGTGGGACCCCTTGGGTTCTAACCTGTTGCCTAGATTTATGCAGCGGACTGCCTTTCTCCCAAAGTGATAAACCGG…AGGTTGGTTTCACT; site = the 11-nt donor. Summed up:
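Sequenced counts of recombinant UMIs were turned into CPM, averaged across replicates and scaled with control-derived factors. The reported figure is log10(CPM+1). Those UMIs, each 12 nt long, tagged donor and donor-binding-loop pairs on a plasmid with a promoterless kanamycin gene, screened as a pool in Escherichia coli with IPTG (0.07 mM) plus kanamycin or without selection.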
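For recombinant UMI read abundance after kanamycin selection (control-corrected) in this document: IS621 bridge recombinase in Escherichia coli cells against a fixed T5 target plasmid.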
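For recombinant barcode read abundance after kanamycin selection (control-corrected) in this document: IS621 recombinase and bridge RNA in Escherichia coli cells.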

Consider “AAACCGCCTTGGGTTCTAACCTGTTGCCT (site AAACCGCCTAG)”, for which the “recombinant barcode read abundance (log10)” value in data set [1] was found to be 1.11.

Take “AAACCGCCTTGGGTTCTAACCTGTTGCCT (site AAACGGCCTAG)”: the “recombinant barcode read abundance (log10)” value in data set [1] stood at 0.163.

“AAACGGCCTTGGGTTCTAACCTGTTGCCT (site AAACCGCCTAG)”: the “recombinant barcode read abundance (log10)” value in data set [1] was 0.147.

On to “AAACGGCCTTGGGTTCTAACCTGTTGCCT (site AAACGGCCTAG)”, for which the “recombinant barcode read abundance (log10)” value in data set [1] is 0.522.

“AAACGGTCTTGGGTTCTAACCTGTTGCTA (site AAACGGTCTTA)”: the “recombinant barcode read abundance (log10)” value in data set [1] worked out at 1.53.

Turning to “AAACGGTCTTGGGTTCTAACCTGTTGCTA (site AAATGGTCTTA)”, the “recombinant barcode read abundance (log10)” value in data set [1] is 0.131.

As to “AAAGCTACTTGGGTTCTAACCTGTTGCCT (site AAAGCTACTAG)”, the “recombinant barcode read abundance (log10)” value in data set [1] was 1.11.

As to “AAAGCTACTTGGGTTCTAACCTGTTGCCT (site AAAGCTCCTAA)”, the “recombinant barcode read abundance (log10)” value in data set [1] was 0.124.

As to “AAAGGGGCTTGGGTTCTAACCTGTTGCCT (site AAAGGGGCTAG)”, in data set [1], the “recombinant barcode read abundance (log10)” value is 2.2.

As to “AAAGGGGCTTGGGTTCTAACCTGTTGCCT (site TTGCATTCTCA)”, in data set [1], the “recombinant barcode read abundance (log10)” value was 0.155.

In the case of “AAAGGGTCTTGGGTTCTAACCTGTTGCCT (site AAAGGGTCTAG)”, the “recombinant barcode read abundance (log10)” value in data set [1] amounted to 1.8.

Take “AAAGGGTCTTGGGTTCTAACCTGTTGCCT (site ACAGGGTCTAG)”: the “recombinant barcode read abundance (log10)” value in data set [1] was 0.327.

For the sequence “AAAGGGTCTTGGGTTCTAACCTGTTGCCT (site AGAGGGTCTAG)”, the “recombinant barcode read abundance (log10)” value in data set [1] turned out to be 0.0828.

As for “AAAGGGTCTTGGGTTCTAACCTGTTGCCT (site ATAGGGTCTAG)”, the “recombinant barcode read abundance (log10)” value in data set [1] is 0.689.

With “AAAGGTCCTTGGGTTCTAACCTGTTGCAG (site AAAGGTCCTCT)”, in data set [1], the “recombinant barcode read abundance (log10)” value turned out to be 2.69.

As for “AAAGGTCCTTGGGTTCTAACCTGTTGCAG (site CTTTAGTCTTA)”, the “recombinant barcode read abundance (log10)” value in data set [1] is 0.0927.

On to “AAAGGTTCTTGGGTTCTAACCTGTTGCCT (site AAAGGTTCTAG)”, for which the “recombinant barcode read abundance (log10)” value in data set [1] was found to be 1.58.

Consider “TTTCCGGCATGGACCGGTTTTCCCGGTAATCCGTATTTGCT (site TTTGCGGCTAG)”, for which, in data set [2], the “recombinant UMI read abundance (log10)” value was found to be 0.00591.

As for “TTTCCGGCATGGACCGGTTTTCCCGGTAATCCGTATTTGCT (site TTTTCGGCTAG)”, the “recombinant UMI read abundance (log10)” value in data set [2] amounted to 0.0123.

“TTTCTAGCATGGACCGGTTTTCCCGGTAATCCGTATTTGAC (site TTTCTAGCTGT)”: the “recombinant UMI read abundance (log10)” value in data set [2] worked out at 0.582.

Regarding “TTTCTGTCATGGACCGGTTTTCCCGGTAATCCGTATTTGAA (site TTTCTGTCTTT)”, the “recombinant UMI read abundance (log10)” value in data set [2] turned out to be 0.0118.

In the case of “TTTGCCTCATGGACCGGTTTTCCCGGTAATCCGTATTTGCC (site TTTGCCTCTGG)”, the “recombinant UMI read abundance (log10)” value in data set [2] was 1.48.

As for “TTTGCGGCATGGACCGGTTTTCCCGGTAATCCGTATTTGAT (site TTTGCGGCTAA)”, the “recombinant UMI read abundance (log10)” value in data set [2] was 0.015.

For “TTTGCGGCATGGACCGGTTTTCCCGGTAATCCGTATTTGAT (site TTTGCGGCTAC)”, the “recombinant UMI read abundance (log10)” value in data set [2] was determined as 0.00828.

On to “TTTGCGGCATGGACCGGTTTTCCCGGTAATCCGTATTTGAT (site TTTGCGGCTAG)”, for which the “recombinant UMI read abundance (log10)” value in data set [2] was found to be 0.

As for “TTTGCGGCATGGACCGGTTTTCCCGGTAATCCGTATTTGAT (site TTTGCGGCTAT)”, the “recombinant UMI read abundance (log10)” value in data set [2] is 0.414.

As to “TTTGCGGCATGGACCGGTTTTCCCGGTAATCCGTATTTGCT (site ATTGCGGCTAG)”, the “recombinant UMI read abundance (log10)” value in data set [2] turned out to be 0.00696.

For “TTTGCGGCATGGACCGGTTTTCCCGGTAATCCGTATTTGCT (site CTTGCGGCTAG)”, in data set [2], the “recombinant UMI read abundance (log10)” value was 0.00458.

In the case of “TTTGCGGCATGGACCGGTTTTCCCGGTAATCCGTATTTGCT (site GTTGCGGCTAG)”, in data set [2], the “recombinant UMI read abundance (log10)” value amounted to 0.00615.

As for “TTTGCGGCATGGACCGGTTTTCCCGGTAATCCGTATTTGCT (site TATGCGGCTAG)”, the “recombinant UMI read abundance (log10)” value in data set [2] is 0.00481.

Take “TTTGCGGCATGGACCGGTTTTCCCGGTAATCCGTATTTGCT (site TCTGCGGCTAG)”: the “recombinant UMI read abundance (log10)” value in data set [2] was 0.

Turning to “TTTGCGGCATGGACCGGTTTTCCCGGTAATCCGTATTTGCT (site TGTGCGGCTAG)”, the “recombinant UMI read abundance (log10)” value in data set [2] was found to be 0.0128.

“TTTGCGGCATGGACCGGTTTTCCCGGTAATCCGTATTTGCT (site TTAGCGGCTAG)”: the “recombinant UMI read abundance (log10)” value in data set [2] was determined as 0.486.

Consider “TTTGCGGCATGGACCGGTTTTCCCGGTAATCCGTATTTGCT (site TTCGCGGCTAG)”, for which the “recombinant UMI read abundance (log10)” value in data set [2] amounted to 0.

As to “TTTGCGGCATGGACCGGTTTTCCCGGTAATCCGTATTTGCT (site TTGGCGGCTAG)”, the “recombinant UMI read abundance (log10)” value in data set [2] is 0.0258.

“TTTGCGGCATGGACCGGTTTTCCCGGTAATCCGTATTTGCT (site TTTACGGCTAG)”: the “recombinant UMI read abundance (log10)” value in data set [2] was 0.658.

For the sequence “TTTGCGGCATGGACCGGTTTTCCCGGTAATCCGTATTTGCT (site TTTCCGGCTAG)”, the “recombinant UMI read abundance (log10)” value in data set [2] is 0.0114.

As for “TTTGCGGCATGGACCGGTTTTCCCGGTAATCCGTATTTGCT (site TTTGAGGCTAG)”, in data set [2], the “recombinant UMI read abundance (log10)” value came out at 0.00621.

With “TTTGCGGCATGGACCGGTTTTCCCGGTAATCCGTATTTGCT (site TTTGCAGCTAG)”, the “recombinant UMI read abundance (log10)” value in data set [2] worked out at 0.0183.

Consider “TTTGCGGCATGGACCGGTTTTCCCGGTAATCCGTATTTGCT (site TTTGCCGCTAG)”, for which the “recombinant UMI read abundance (log10)” value in data set [2] amounted to 0.00324.

Regarding “TTTGCGGCATGGACCGGTTTTCCCGGTAATCCGTATTTGCT (site TTTGCGACTAG)”, the “recombinant UMI read abundance (log10)” value in data set [2] is 0.

For “TTTGCGGCATGGACCGGTTTTCCCGGTAATCCGTATTTGCT (site TTTGCGCCTAG)”, the “recombinant UMI read abundance (log10)” value in data set [2] stood at 0.00251.

With “TTTGCGGCATGGACCGGTTTTCCCGGTAATCCGTATTTGCT (site TTTGCGGCTAA)”, the “recombinant UMI read abundance (log10)” value in data set [2] stood at 0.0285.

Regarding “TTTGCGGCATGGACCGGTTTTCCCGGTAATCCGTATTTGCT (site TTTGCGGCTAC)”, the “recombinant UMI read abundance (log10)” value in data set [2] was 0.0071.

With “TTTGCGGCATGGACCGGTTTTCCCGGTAATCCGTATTTGCT (site TTTGCGGCTAG)”, the “recombinant UMI read abundance (log10)” value in data set [2] is 0.75.

As for “TTTGCGGCATGGACCGGTTTTCCCGGTAATCCGTATTTGCT (site TTTGCGGCTAT)”, the “recombinant UMI read abundance (log10)” value in data set [2] came to 0.0119.

Regarding “TTTGCGGCATGGACCGGTTTTCCCGGTAATCCGTATTTGCT (site TTTGCGGCTCG)”, in data set [2], the “recombinant UMI read abundance (log10)” value was 0.0133.

Consider “TTTGCGGCATGGACCGGTTTTCCCGGTAATCCGTATTTGCT (site TTTGCGGCTGG)”, for which, in data set [2], the “recombinant UMI read abundance (log10)” value worked out at 0.

On to “TTTGCGGCATGGACCGGTTTTCCCGGTAATCCGTATTTGCT (site TTTGCGGCTTG)”, for which the “recombinant UMI read abundance (log10)” value in data set [2] is 0.00988.

For “TTTGCGGCATGGACCGGTTTTCCCGGTAATCCGTATTTGCT (site TTTGCGTCTAG)”, the “recombinant UMI read abundance (log10)” value in data set [2] turned out to be 0.00651.

On to “TTTGCGGCATGGACCGGTTTTCCCGGTAATCCGTATTTGCT (site TTTGCTGCTAG)”, for which the “recombinant UMI read abundance (log10)” value in data set [2] came to 0.

Consider “TTTGCGGCATGGACCGGTTTTCCCGGTAATCCGTATTTGCT (site TTTGGGGCTAG)”, for which the “recombinant UMI read abundance (log10)” value in data set [2] amounted to 0.00746.

Take “TTTGCGGCATGGACCGGTTTTCCCGGTAATCCGTATTTGCT (site TTTGTGGCTAG)”: the “recombinant UMI read abundance (log10)” value in data set [2] was 0.00957.

Take “TTTGCGGCATGGACCGGTTTTCCCGGTAATCCGTATTTGCT (site TTTTCGGCTAG)”: the “recombinant UMI read abundance (log10)” value in data set [2] was determined as 0.00374.

“TTTGGCACATGGACCGGTTTTCCCGGTAATCCGTATTTGGC (site TTTGGCACTGC)”: the “recombinant UMI read abundance (log10)” value in data set [2] was 0.00668.

Take “TTTGGGGCATGGACCGGTTTTCCCGGTAATCCGTATTTGCT (site TTTGAGGCTAG)”: the “recombinant UMI read abundance (log10)” value in data set [2] turned out to be 0.621.

In the case of “TTTGGGGCATGGACCGGTTTTCCCGGTAATCCGTATTTGCT (site TTTGCGGCTAG)”, the “recombinant UMI read abundance (log10)” value in data set [2] was 0.00428.

As for “TTTGGGGCATGGACCGGTTTTCCCGGTAATCCGTATTTGCT (site TTTGGGGCTAG)”, the “recombinant UMI read abundance (log10)” value in data set [2] came out at 1.61.

With “TTTGGGGCATGGACCGGTTTTCCCGGTAATCCGTATTTGCT (site TTTGTGGCTAG)”, the “recombinant UMI read abundance (log10)” value in data set [2] worked out at 0.0107.

As to “TTTGTAGCATGGACCGGTTTTCCCGGTAATCCGTATTTGGA (site TTTGTAGCTTC)”, the “recombinant UMI read abundance (log10)” value in data set [2] worked out at 0.00646.

In the case of “TTTGTGTCATGGACCGGTTTTCCCGGTAATCCGTATTTGCG (site TTTGTGTCTCG)”, the “recombinant UMI read abundance (log10)” value in data set [2] stood at 0.535.

In the case of “TTTGTTTCATGGACCGGTTTTCCCGGTAATCCGTATTTGTT (site TTTGTTTCTAA)”, the “recombinant UMI read abundance (log10)” value in data set [2] is 0.
